According to patent US9296775B2, “Pyrazole compounds” (Eli Lilly and Company, priority 2012, dated 2016):

Experiments:
[1] = tested on: male Sprague Dawley rats with STZ-induced diabetes; test: Mixed meal tolerance test in male rats with streptozotocin induced diabetes; type: in vivo, rat; details: for Glucose Values 0 min. / Glucose Values 20 min. / Glucose Values 40 min. / Glucose Values 60 min. / Glucose Values 120 min. / Baseline Adjusted AUC: mean ± SE; for Baseline Adjusted AUC: glucose AUC in MTT
Protocol: Rats which have been administered streptozotocin (STZ) develop diabetes mellitus. Agents which modulate glucose levels in these animals are believed to be useful in the treatment of diabetes in humans.
The test compound is formulated by adding a vehicle of 1% hydroxyethylcellulose (HEC), 0.25% Tween® 80 w/ antifoam 0.05% to preweighed test compound to make a 2.5 mg/ml solution. The mixture is probe sonicated for approximately 30 seconds. The resulting solution is used as a stock solution, from which the lower concentration dose solutions are prepared by dilution with the vehicle. STZ, 45 mg/kg, is formulated by dissolving in 0.1M Citrate buffer in 3 ml aliquots and stored in the dark on ice, when not being administered. A high fat content mixed meal (Bio-Serv® Rodent Diet F3282 High Fat) comprising Fat Calories (60%), Carbohydrate Calories (26%) and Protein Calories (15%) is utilized. Single housed Sprague Dawley rats are allowed to acclimate for a period of 3 to 7 days.
In an effort to ensure that the animals have not recently fed, STZ is administered in the afternoon, approximately six hours into the light cycle (lights on 6 am, lights off 6 pm). The animals are anesthetized with isoflurane and STZ is delivered via tail vein injection. Once animals regain consciousness, they are returned to housing and allowed to recover for 7 days.
On the two days immediately prior to the meal tolerance test (MTT) all rats are given a small amount (2-4 g) of the F3282 diet, so they became acclimated to it prior to receiving it during the experiment. On the evening before the experiment, the rats are moved into clean cages and their food is removed. The following morning animals are weighed and a blood sample is taken by tail snip for glucose measurement (Abbott AlphaTrak glucometers: code 29). Animals are grouped n=6 based on fasted body weight and glucose. Thirty minutes after the test compound is orally administered, two glucose measurements are collected. Then a five gram pellet of Bio-Serv® diet 3282 is given. After 20 minutes remaining food is taken away and weighed. Blood samples are taken at 20, 40, 60 and 120 minutes for glucose measurement.

[2] = tested on: normal glycemic C57Bl/6 mouse; test: Oral glucose tolerance test (OGTT); type: in vivo; details: for Glucose 0 Minute: 3 h before dextrose 3 g/kg; for Glucose 0 Minute / Glucose 20 Minute / Glucose 40 Minute / Glucose 60 Minute / Glucose 120 Minute / Baseline Adjusted AUC: mean ± SE; for Glucose 20 Minute: 20 min after dextrose; for Glucose 40 Minute: 40 min after dextrose; for Glucose 60 Minute: 60 min after dextrose; for Glucose 120 Minute: 120 min after dextrose; for Baseline Adjusted AUC: glucose AUC during OGTT
Protocol: The test compound is formulated by adding a vehicle of 1% hydroxyethylcellulose, 0.25% Tween® 80 w/ antifoam 0.05% to preweighed test compound to make a 1 mg/ml solution. The mixture is probe sonicated for approximately 30 seconds. The resulting solution is used as a stock solution from which the lower concentration dose solutions are prepared by dilution with the vehicle.
Single housed C57Bl/6 mice are fasted overnight by removing access to food the late afternoon before test day. The following morning, the mice are weighed and a single fasting blood sample is taken by tail snip to measure glucose by glucometer (Roche AccuChek). Study groups (n=5) are determined based on fasted blood glucose and comprise preferably animals in the range of 80-100 mg/dl glucose.
After grouping, the first mouse is orally gavaged with 10 ml/kg test compound preparation and a timer started. Each subsequent animal is dosed a minute and a half apart. Three hours after the first compound treatment is started, a baseline blood sample is taken for measuring glucose (from the first animal, via tail snip). The animal is then immediately given an oral dose of 50% dextrose (Hospira) at 3 g/kg. Blood samples are taken for glucose, exactly a minute and half apart, by tail vein so that blood is collected in each animal at 20, 40, 60 and 120 minutes after the dextrose dose.

[3] = result in words, Example 1 10 and 30 mg/kg, Acarbose 60 mg/kg

In the case of `C[C@H]1O[C@H](O[C@H]2[C@H](O)[C@@H](O)[C@@H](O[C@H]3[C@H](O)[C@@H](O)C(O)O[C@@H]3CO)O[C@@H]2CO)[C@H](O)[C@@H](O)[C@@H]1N[C@H]1C=C(CO)[C@@H](O)[C@H](O)[C@H]1O` (stereo partly shown) [Acarbose, reference compound], the “Glucose Values 0 min.” value ([1]; 60 mg/kg oral) is reported as 124 ± 16.9 mg/dL, the “Glucose Values 20 min.” value ([1]; 60 mg/kg oral) is reported as 181 ± 22.8 mg/dL and the “Glucose Values 40 min.” value ([1]; 60 mg/kg oral) is reported as 301.3 ± 51.2 mg/dL. For the same molecule, the “Glucose Values 60 min.” value ([1]; 60 mg/kg oral) was 371.5 ± 63.9 mg/dL, the “Glucose Values 120 min.” value ([1]; 60 mg/kg oral) was 433.7 ± 83 mg/dL and the “Baseline Adjusted AUC” value ([1]; 60 mg/kg oral) was 23877 ± 4649. For the same molecule, the “glucose baseline adjusted AUCs in the MTT” value [1, 3] was “significantly decreases” and the “glucose in the MTT compared to the vehicle controls” value [1, 3] was “did not significantly decrease”.
`Cc1cc(/C=C/CCN2CCCC3(CCNCC3)C2)ccc1Cc1c(O[C@@H]2O[C@H](CO)[C@@H](O)[C@H](O)[C@H]2O)n[nH]c1C(C)C` [Example 1, 4-{4-[(1E)-4-(2,9-diazaspiro[5.5]undec-2-yl)but-1-en-1-yl]-2-methylbenzyl}-5-(propan-2-yl)-1H-pyrazol-3-yl beta-D-glucopyranoside] was tested, and the “Glucose 0 Minute” value ([2]; 0.3 mg/kg oral) was 78 ± 4.2 mg/dL, the “Glucose 20 Minute” value ([2]; 0.3 mg/kg oral) was 185 ± 13.7 mg/dL and the “Glucose 40 Minute” value ([2]; 0.3 mg/kg oral) was 197 ± 14.7 mg/dL. For the same molecule, the “Glucose 60 Minute” value ([2]; 0.3 mg/kg oral) was 164 ± 6.3 mg/dL, the “Glucose 120 Minute” value ([2]; 0.3 mg/kg oral) was 121 ± 11.8 mg/dL and the “Baseline Adjusted AUC” value ([2]; 0.3 mg/kg oral) was 5400 ± 519^. For the same molecule, the “Glucose 0 Minute” value ([2]; 1 mg/kg oral) was 76 ± 3.3 mg/dL, the “Glucose 20 Minute” value ([2]; 1 mg/kg oral) was 147 ± 8.3 mg/dL and the “Glucose 40 Minute” value ([2]; 1 mg/kg oral) was 171 ± 11.1 mg/dL. For the same molecule, the “Glucose 60 Minute” value ([2]; 1 mg/kg oral) was 162 ± 5.8 mg/dL, the “Glucose 120 Minute” value ([2]; 1 mg/kg oral) was 109 ± 7.3 mg/dL and the “Baseline Adjusted AUC” value ([2]; 1 mg/kg oral) was 4158 ± 374^. For the same molecule, the “Glucose 0 Minute” value ([2]; 3 mg/kg oral) was 72 ± 2.6 mg/dL, the “Glucose 20 Minute” value ([2]; 3 mg/kg oral) was 133 ± 7.1 mg/dL and the “Glucose 40 Minute” value ([2]; 3 mg/kg oral) was 150 ± 7.5 mg/dL. For the same molecule, the “Glucose 60 Minute” value ([2]; 3 mg/kg oral) was 155 ± 7.2 mg/dL, the “Glucose 120 Minute” value ([2]; 3 mg/kg oral) was 115 ± 10 mg/dL and the “Baseline Adjusted AUC” value ([2]; 3 mg/kg oral) was 3606 ± 421. For the same molecule, the “Glucose 0 Minute” value ([2]; 10 mg/kg oral) was 78 ± 5.4 mg/dL, the “Glucose 20 Minute” value ([2]; 10 mg/kg oral) was 124 ± 1.2 mg/dL and the “Glucose 40 Minute” value ([2]; 10 mg/kg oral) was 137 ± 5.4 mg/dL. For the same molecule, the “Glucose 60 Minute” value ([2]; 10 mg/kg oral) was 138 ± 6.1 mg/dL, the “Glucose 120 Minute” value ([2]; 10 mg/kg oral) was 114 ± 4.3 mg/dL and the “Baseline Adjusted AUC” value ([2]; 10 mg/kg oral) was 2693 ± 309. For the same molecule, the “average maximum concentration of plasma glucose (Cmax) during the OGTT” value ([2]; 0.3-10 mg/kg, result in words) was “dose dependently decreases”, the “average time that it takes for glucose to reach maximum concentration (Tmax)” value ([2]; 0.3-10 mg/kg, result in words) was “increasing” and the “Glucose Values 0 min.” value ([1]; 10 mg/kg oral) was 139 ± 16.1 mg/dL. The “Glucose Values 20 min.” value ([1]; 10 mg/kg oral) was 221.2 ± 26.3 mg/dL, the “Glucose Values 40 min.” value ([1]; 10 mg/kg oral) was 268.7 ± 29 mg/dL and the “Glucose Values 60 min.” value ([1]; 10 mg/kg oral) was 330 ± 36.7 mg/dL. For the same molecule, the “Glucose Values 120 min.” value ([1]; 10 mg/kg oral) was 490.8 ± 39.2 mg/dL, the “Baseline Adjusted AUC” value ([1]; 10 mg/kg oral) was 22432 ± 2234 and the “Glucose Values 0 min.” value ([1]; 30 mg/kg oral) was 137.4 ± 26.9 mg/dL. For the same molecule, the “Glucose Values 20 min.” value ([1]; 30 mg/kg oral) was 195.4 ± 44.8 mg/dL, the “Glucose Values 40 min.” value ([1]; 30 mg/kg oral) was 232 ± 52.2 mg/dL and the “Glucose Values 60 min.” value ([1]; 30 mg/kg oral) was 263.9 ± 62.2 mg/dL. The “Glucose Values 120 min.” value ([1]; 30 mg/kg oral) was 355.3 ± 73.2 mg/dL and the “Baseline Adjusted AUC” value ([1]; 30 mg/kg oral) was 14649 ± 3673.
